≈ marks a conversion by molar mass, not a printed value.
What follows are molecules tested on M. tuberculosis Spec. 210 (resistant strain isolated from TB patients) (assay: Tuberculostatic activity, twofold serial microdilution with Alamar Blue). Details: Mycobacterium tuberculosis, 504 h, read-out: MIC Spec. 210.
Format: cell-based

Structure (SMILES)	MIC [µg/mL]
NC(=NNC(=S)N1CCOCC1)c1cccc(N2CCCC2)n1 [Compound 4, N’-(Morpholine-4-Carbonothioyl)-6-(Pyrrolidin-1-Yl)Picolinohydrazonamide]	4 (≈ 12 µM)
NC(=NNC(=S)N1CCCC1)c1cccc(Oc2ccccc2)n1 [Compound 9, 6-Phenoxy-N’-(Pyrrolidine-1-Carbonothioyl)Picolinohydrazonamide]	4 (≈ 11.7 µM)
NC(=NNC(=S)N1CCCC1)c1cccc(N2CCCCC2)n1 [Compound 7, 6-(Piperidin-1-Yl)-N’-(Pyrrolidine-1-Carbonothioyl)Picolinohydrazonamide]	0.5 (≈ 1.5 µM)
NC(=NNC(=S)N1CCOCC1)c1cccc(N2CCCCC2)n1 [Compound 6, N’-(Morpholine-4-Carbonothioyl)-6-(Piperidin-1-Yl)Picolinohydrazonamide]	1 (≈ 2.87 µM)
NNC(=O)c1ccncc1 [INH, isoniazid, reference compound]	8 (≈ 58.3 µM)
NC(=NNC(=S)N1CCCC1)c1cccc(N2CCCC2)n1 [Compound 5, 6-(Pyrrolidin-1-Yl)-N’-(Pyrrolidine-1-Carbonothioyl)Picolinohydrazonamide]	1 (≈ 3.14 µM)
NC(=NNC(=S)N1CCOCC1)c1cccc(Oc2ccccc2)n1 [Compound 8, N’-(Morpholine-4-Carbonothioyl)-6-Phenoxypicolinohydrazonamide]	4 (≈ 11.2 µM)
